{"source": "patent US4980377A", "about": "“1-(aminophenyl)-2-aminopropanone derivatives” (Laboratoire L. Lafon, priority 1984, dated 1990)", "key": {"[1]": {"system": "cellular and humoral immunity", "experiment": "Delayed hypersensitivity to the red blood corpuscles of sheep", "format": "in vivo"}, "[2]": {"system": "mice", "experiment": "Interaction with reserpine", "format": "in vivo, mouse", "details": "i.p.", "method": "Four hours after the intraperitoneal injection of 2.5 mg/kg of reserpine, groups of 6 mice receive CRL 41 153."}, "[3]": {"system": "mice", "experiment": "Behavioral despair", "format": "in vivo, mouse", "details": "forcibly immersed mice, i.p.", "text": "Half an hour after they have received CRL 41 153, groups of 6 mice are placed in a beaker filled with water to a height of 6 cm. The total period of immobility between the 2nd and 6th minutes following immersion is noted."}, "[4]": {"system": "mice", "experiment": "Spontaneous motility", "format": "in vivo, mouse", "details": "i.p.", "method": "0.5 hour after they have received CRL 41 153, the mice (6 per dose, 12 control animals) are placed in an actimeter, where their motility is recorded for 30 minutes."}, "[5]": {"system": "CNS", "experiment": "Neuropsychopharmacological profile as a whole", "format": "in vivo, mice and rats", "method": "(§1) In the neuropsychopharmacological study which follows, a solution of CRL 41 153 in distilled water (pH 1.5) was administered intraperitoneally in a volume of 20 ml/kg to male mice and 5 ml/kg to male rats."}, "[6]": {"system": "rats", "experiment": "Interaction with apomorphine in rats", "format": "in vivo, rat", "details": "i.p.", "method": "CRL 41 153 is administered to groups of 6 rats 0.5 hour before the subcutaneous injection of 0.5 mg/kg of apomorphine."}, "[7]": {"system": "rats", "experiment": "Interaction with amphetamine", "format": "in vivo, rat", "details": "i.p.", "method": "Amphetamine (2 mg/kg) is injected intraperitoneally into groups of 6 rats 30 minutes after the administration of CRL 41 153. […] 4 mg/kg and 16 mg/kg, CRL 41 153 potentiates the intensity and duration of the stereotypies induced by amphetamine."}, "[8]": {"system": "mice", "experiment": "Interaction with apomorphine in mice", "format": "in vivo, mouse", "details": "i.p.", "method": "Groups of 6 mice receive CRL 41 153 0.5 hour before the subcutaneous injection of 1 or 16 mg/kg of apomorphine."}, "[9]": {"system": "gravid White New Zealand female rabbits", "experiment": "Teratogenicity in gravid White New Zealand rabbits", "format": "in vivo, rabbit", "details": "day 5 to day 18 of gestation; for Affected foetuses, %: normal limit 1.5%", "method_in_brief": "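Fetuses harvested by cesarean on gestation day 29 were scored for number and for any malformation (limb blockade, anury, tail or skull defects, exencephaly).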"}, "[10]": {"system": "mice", "experiment": "Interaction with barbital", "format": "in vivo, mouse", "details": "i.p., barbital 220 mg/kg", "method": "Half an hour after the administration of CRL 41 153, groups of 10 mice receive an intraperitoneal injection of barbital (220 mg/kg)."}, "[11]": {"system": "cellular and humoral immunity", "experiment": "Test for cells forming lysis areas", "details": "in vivo"}, "[12]": {"system": "mice", "experiment": "Motility reduced by hypoxic aggression", "format": "in vivo, mouse", "details": "i.p.", "method": "Half an hour after they have received CRL 41 153, the mice (10 per dose, 20 control animals) are subjected to acute hypobaric anoxia [pressure reduction of 600 mm Hg (i.e. about 8×10^4 Pa) in 90 seconds; release of vacuum in 45 seconds] and are then placed in an actimeter, where their motility is recorded for 10 minutes."}, "[13]": {"system": "mice", "experiment": "Overall behavior and reactivities in mice", "format": "in vivo, mouse", "details": "dose not stated", "method": "as §1\n(§2) Groups of three animals are observed before and then 0.25 hour, 0.50 hour, 1 hour, 2 hours, 3 hours and 24 hours after the administration of CRL 41 153."}, "[14]": {"system": "rats", "experiment": "Overall behavior and reactivities in rats", "format": "in vivo, rat", "details": "dose not stated", "method": "as §1, §2"}, "[15]": {"system": "man", "experiment": "Clinical study: treatment of depressions", "format": "in vivo, human"}, "[16]": {"system": "immunity", "experiment": "Immunological study (overall)", "details": "in vivo; dihydrochloride"}, "[17]": {"system": "mice", "experiment": "Motility reduced by habituation to the enclosure", "format": "in vivo, mouse", "details": "i.p.", "method": "After they have stayed In the actimeters for 18 hours, (he mice (6 per dose, 12 control animals) receive CRL 41 153. They are immediately returned to their respective enclosures and, half an hour later, their motility is recorded for 30 minutes."}, "[18]": {"system": "mice", "experiment": "Interaction with oxotremorine", "format": "in vivo, mouse", "details": "i.p.", "method": "CRL 41 153 is administered to groups of 6 mice 0.5 hour before the intraperitoneal injection of 0.5 mg/kg of oxotremorine."}, "[19]": {"experiment": "pH of solutions in distilled water", "format": "physicochemical", "method": "The neuropsychopharmacological study was undertaken according to the procedures described above for CRL 41 153, CRL 41 213 being adminstered intraperitoneally, in solution in distilled water, in a volume of 20 ml/kg to male mice and a volume of 5 ml/kg to male rats, and the pH of the injected solution varying with the concentration of CRL 41 213 according to the data given in Table II below."}, "[20]": {"system": "dogs", "experiment": "Cardiovascular study in anesthetized dogs", "format": "in vivo, dog", "method_in_brief": "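Measurements: blood pressure, heart rate, femoral and vertebral arterial flow, rectal temperature, skin colour, and for CRL 41 194 bile colour via bile-duct catheter. Doses rose stepwise 0.1–10 mg/kg intraduodenally in solution under nembutal anaesthesia; two dogs got CRL 41 194, four CRL 41 221.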"}, "[21]": {"details": "anesthetized dogs, intraduodenal"}}, "note": "Entries after “also recorded” stand apart in the source; their conditions may differ. Structures can show the parent of a compound that is named as a salt."}
{"smiles": "CC(C(=O)c1ccc(N)cc1)N1CCOCC1", "note": "(stereo not shown) [CRL 41 237, 1-(4-aminophenyl)-2-morpholinopropanone dihydrochloride]", "values": [{"measurement": "Activity on the delayed hypersensitivity reaction", "setting": "[1]", "value": "weaker activity on the abovementioned delayed hypersensitivity reaction to red blood corpuscles of sheep, at doses of 0.1 mg/kg to 10 mg/kg, administered orally"}, {"measurement": "Effect on hypothermia induced by reserpine", "setting": "[2]", "value": "antagonism of the hypothermia"}, {"measurement": "Effect on ptosis induced by reserpine", "setting": "[2]", "value": "antagonism of the ptosis induced by reserpine"}, {"measurement": "Period of immobility due to despair", "setting": "[3]", "value": "a reduction in the period of immobility"}, {"measurement": "Spontaneous motor activity", "setting": "[4]", "value": "an increase in the spontaneous motor activity of mice"}, {"measurement": "Stimulant effects (overall)", "setting": "[5]; conclusion of the tests", "value": "stimulant effects"}, {"measurement": "α-adrenergic stimulant effects (overall)", "setting": "[5]; conclusion of the tests", "value": "effects showing peripheral α-adrenergic stimulation"}, {"measurement": "Antidepressant effects (overall)", "setting": "[5]; conclusion of the tests, dihydrochloride", "value": "good antidepressant; also recorded: antidepressant effects"}, {"measurement": "Peripheral α-adrenergic signs (mydriasis, salivation, lacrimation, exophthalmos)", "setting": "[5]; species and dose not stated, dihydrochloride", "value": "mydriasis"}, {"measurement": "Effect on stereotypies induced by apomorphine", "setting": "[6]", "value": "potentiation of the stereotypies"}, {"measurement": "Effect on stereotypies induced by amphetamine", "setting": "[7]", "value": "potentiation of the stereotypies"}, {"measurement": "Effect on hypothermia induced by apomorphine", "setting": "[8]", "value": "antagonism of the hypothermia"}, {"measurement": "Affected foetuses, number", "setting": "[9]; 5 mg/kg daily", "value": 0}, {"measurement": "Total foetuses (live)", "setting": "[9]; 5 mg/kg daily", "value": 91}, {"measurement": "Affected foetuses, %", "setting": "[9]; 5 mg/kg daily", "value": 0, "unit": "%"}, {"measurement": "Affected foetuses, number", "setting": "[9]; 10 mg/kg daily", "value": 1}, {"measurement": "Total foetuses (live)", "setting": "[9]; 10 mg/kg daily", "value": 96}, {"measurement": "Affected foetuses, %", "setting": "[9]; 10 mg/kg daily", "value": 1.04, "unit": "%"}, {"measurement": "Affected foetuses, number", "setting": "[9]; 50 mg/kg daily", "value": 1}, {"measurement": "Total foetuses (live)", "setting": "[9]; 50 mg/kg daily", "value": 88}, {"measurement": "Affected foetuses, %", "setting": "[9]; 50 mg/kg daily", "value": 1.13, "unit": "%"}, {"measurement": "Duration of the sleep induced by barbital", "setting": "[10]", "value": "a reduction in the duration of the sleep induced by barbital"}, {"measurement": "Activity in the test for cells forming lysis areas", "setting": "[11]", "value": "strong activity according to the abovementioned test for cells forming lysis areas, at a dose of 100 mg/kg, administered orally"}, {"measurement": "Motor recovery of mice after hypobaric hypoxia", "setting": "[12]", "value": "improvement in the motor recovery"}, {"measurement": "Overall behavior: observed effects (summary)", "setting": "[13]", "value": "excitation with hyperreactivity in mice and rats"}, {"measurement": "Stereotype movements (summary)", "setting": "[13]", "value": "the presence of stereotype movements in mice and rats"}, {"measurement": "Overall behavior: observed effects (summary)", "setting": "[14]", "value": "excitation with hyperreactivity in mice and rats"}, {"measurement": "Stereotype movements (summary)", "setting": "[14]", "value": "the presence of stereotype movements in mice and rats"}, {"measurement": "Result in the treatment of depressions", "setting": "[15]", "value": "good results were obtained by oral administration in the treatment of depressions at a daily dose of -0 mg"}, {"measurement": "Immunological effect (overall)", "setting": "[16]", "value": "immunostimulant or immunomodulating effects; also recorded: immunostimulant effects"}, {"measurement": "Motor activity of mice accustomed to their enclosure", "setting": "[17]", "value": "resumption in the motor activity of mice accustomed to their enclosure"}, {"measurement": "Effect on hypothermic action of oxotremorine", "setting": "[18]", "value": "antagonism of the hypothermia"}, {"measurement": "Effect on trembling induced by oxotremorine", "setting": "[18]", "value": "antagonism of the trembling induced by oxotremorine"}, {"measurement": "pH", "setting": "[19]; 0.1 g/liter in distilled water", "value": 5.0}, {"measurement": "pH", "setting": "[19]; 0.2 g/liter in distilled water", "value": 4.5}, {"measurement": "pH", "setting": "[19]; 0.4 g/liter in distilled water", "value": 4.0}, {"measurement": "pH", "setting": "[19]; 0.8 g/liter in distilled water", "value": 3.5}, {"measurement": "pH", "setting": "[19]; 1.6 g/liter in distilled water", "value": 3.0}, {"measurement": "pH", "setting": "[19]; 3.2 g/liter in distilled water", "value": 2.5}, {"measurement": "pH", "setting": "[19]; 6.4 g/liter in distilled water", "value": 2.0}, {"measurement": "pH", "setting": "[19]; 25 g/liter in distilled water", "value": 1.5}, {"measurement": "pH", "setting": "[19]; 50 g/liter in distilled water", "value": 1.0}, {"measurement": "pH", "setting": "[19]; ≤0.05 g/liter in distilled water", "value": 5.5}, {"measurement": "Femoral flow", "setting": "[20]; anesthetized dog, intravenous, additional 10 mg/kg", "value": "caused an increase in the femoral flow"}, {"measurement": "Effect on hypertension induced by norepinephrine", "setting": "[20]; anesthetized dogs", "value": "distinctly increases the hypertension induced by norepinephrine"}, {"measurement": "Effects of isoprenaline (not further specified)", "setting": "[20]; anesthetized dogs", "value": "does not modify the effects of isoprenaline"}, {"measurement": "Rectal temperature", "setting": "[20]; anesthetized dogs", "value": "The rectal temperature rises gradually"}, {"measurement": "Skin temperature", "setting": "[20]; anesthetized dogs", "value": "a large increase in the skin temperature"}, {"measurement": "Blood pressure", "setting": "[20]; [21]", "value": "No action was observed on the blood pressure"}, {"measurement": "Femoral flow", "setting": "[20]; [21]", "value": "No action was observed on the blood pressure, the femoral flow and the vertebral flow"}, {"measurement": "Heart rate", "setting": "[20]; [21]", "value": "slight tachycardiac effect at 20 mg/kg"}, {"measurement": "Vertebral flow", "setting": "[20]; [21]", "value": "No action was observed on the blood pressure, the femoral flow and the vertebral flow"}]}
